Data reported in patent US20250122191A1, “COMPOUNDS AS BCL-2 INHIBITORS” (Fochon Biosciences, Ltd, priority 2021, published 2025).

system: RS4;11-BCL-2 G101V cells; experiment: Cell proliferation assay (MTS), RS4;11-BCL-2 G101V engineered cells; type: cell-based; conditions: Homo sapiens, 120 h, read-out: RS4, 11 BCL2-G101V IC50
Text: MTS testing kit was purchased from Promega (Madison, WI, USA). The RPMI-1640, Fetal bovine serum and Penicillin-Streptomycin were purchased from BI (Biological Industries, Beit Haemek, Israel). Puromycin was purchased from Beyotime (shanghai, China). Dimethyl sulfoxide (DMSO) was purchased from Sigma (St. Louis., MO, USA). RS4;11-BCL-2 G101V (Cobioer Lot. #: CBD2021063013P4), RS4;11-BCL-2 D103E (Cobioer Lot. #: CBD2021063013P4), RS4;11-BCL-2 D103Y (Cobioer Lot. #: CBD2022012101P4) and RS4;11-BCL-2 F104L (Cobioer Lot. #: CBD2021063014P4) cells were cultured in RPMI1640 supplemented with 1 ug/mL puromycin, 100 U/mL Penicillin-Streptomycin and 10% FBS.
To investigate whether a compound is able to inhibit the activity of BCL-2 mutation in cells, a mechanism-based assay using engineered cell lines stably overexpressing BCL-2 mutation (RS4;11-BCL-2 G101V, RS4;11-BCL-2 D103E, RS4;11-BCL-2 D103Y, and RS4;11-BCL-2 F104L) was developed. In this assay, the inhibition of BCL-2 mutation was reflected by the inhibition of cell proliferation of engineered RS4;11 cells. Cells were plated into 96-well plates at optimized cell density (RS4;11-BCL-2 G101V: 5000 cells/well; RS4;11-BCL-2 D103E: 7500 cells/well; RS4;11-BCL-2 D103Y: 7500 cells/well; RS4;11-BCL-2 F104L: 5000 cells/well). Plates were incubated at 37° C., with 5% CO2 for 4 h (RS4;11-BCL-2 G101V, RS4;11-BCL-2 F104L) and 24 h (RS4;11-BCL-2 D103E, RS4;11-BCL-2 D103Y), respectively. Compounds were serially diluted and added to the plates with the final concentrations of 10000, 3333.3, 1111.1, 370.4, 123.5, 41.2, 13.7, 4.6 and 1.5 nM. Plates were incubated at 37° C., with 5% CO2 for 120 h (RS4; 11-BCL-2 G101V, RS4; 11-BCL-2 F104L) and 72 h (RS4;11-BCL-2 D103E, RS4;11-BCL-2 D103Y), respectively. 20 μl MTS was added into each well and the plates were incubated at 37° C., with 5% CO2 exactly for 2 h. The absorbance was measured by a microplate reader at 490 nm. IC50 values were calculated using GraphPad Prism 8.0 software.

Q: With `COc1nc2[nH]cc(F)c2cc1Oc1cc(N2CCC3(CC2)CC(N2CCN(Cc4ccc5c(c4)CCO5)C[C@H]2c2ccccc2C(C)C)C3)ccc1C(=O)NS(=O)(=O)c1cnc(NC[C@H]2CC[C@](C)(O)CC2)c([N+](=O)[O-])c1` [Example 323, 4-(2-((R)-4-((2,3-dihydrobenzofuran-5-yl)methyl)-2-(2-isopropylphenyl)piperazin-1-yl)-7-azaspiro[3.5]nonan-7-yl)-2-((3-fluoro-6-methoxy-1H-pyrrolo[2,3-b]pyridin-5-yl)oxy)-N-((6-((((1r,4r)-4-hydroxy-4-methylcyclohexyl)methyl)amino)-5-nitropyridin-3-yl)sulfonyl)benzamide] as the compound, how does the IC50 read?
A: 1 nM

system: Toledo cells; experiment: Cell proliferation assay (MTS), Toledo cells; type: cell-based; conditions: Homo sapiens, 72 h
Description: MTS testing kit was purchased from Promega (Madison, WI, USA). The RPMI-1640, Fetal bovine serum and Penicillin-Streptomycin were purchased from BI (Biological Industries, Beit Haemek, Israel). Dimethyl sulfoxide (DMSO) was purchased from Sigma (St. Louis., MO, USA). Toledo (ATCC catalog #: CRL-2631) cells were cultured in RPMI-1640 supplemented with Penicillin-Streptomycin and 10% FBS.
To investigate whether a compound is able to inhibit the activity of BCL-2 in cells, a mechanism-based assay using Toledo lines was developed. In this assay, the inhibition of BCL-2 was reflected by the inhibition of cell proliferation of Toledo cells. Cells were plated into 96-well plates at the optimized cell density of 30000 cells/well. Plates were incubated at 37° C., with 5% CO2 for 4 h. Compounds were serially diluted and added to the plates with the final concentrations of 10000, 3333.3, 1111.1, 370.4, 123.5, 41.2, 13.7, 4.6 and 1.5 nM. Plates were incubated at 37° C., with 5% CO2 for 72 h. 20 μl MTS was added into each well and the plates were incubated at 37° C., with 5% CO2 for exactly 2 h. The absorbance was measured by a microplate reader at 490 nm. IC50 was calculated using GraphPad Prism 5.0 software.

Q: For `COc1nc2[nH]cc(F)c2cc1Oc1cc(N2CCC3(CC2)CC(N2CCN(Cc4ccc5c(c4)CCO5)C[C@H]2c2ccccc2C(C)C)C3)ccc1C(=O)NS(=O)(=O)c1cnc(NC[C@H]2CC[C@](C)(O)CC2)c([N+](=O)[O-])c1` [Example 323, 4-(2-((R)-4-((2,3-dihydrobenzofuran-5-yl)methyl)-2-(2-isopropylphenyl)piperazin-1-yl)-7-azaspiro[3.5]nonan-7-yl)-2-((3-fluoro-6-methoxy-1H-pyrrolo[2,3-b]pyridin-5-yl)oxy)-N-((6-((((1r,4r)-4-hydroxy-4-methylcyclohexyl)methyl)amino)-5-nitropyridin-3-yl)sulfonyl)benzamide], which IC50 is on record?
A: 1 nM

Q: Which IC50 does the source give for `CC(C)c1ccccc1[C@@H]1CN(Cc2ccc3c(c2)OCCO3)CCN1C1CC2(CCN(c3ccc(C(=O)NS(=O)(=O)c4cnc(NC[C@H]5CC[C@](C)(O)CC5)c([N+](=O)[O-])c4)c(Oc4cnc5[nH]cc(F)c5c4)c3)CC2)C1` [Example 322, 4-(2-((R)-4-((2,3-dihydrobenzo[b][1,4]dioxin-6-yl)methyl)-2-(2-isopropylphenyl)piperazin-1-yl)-7-azaspiro[3.5]nonan-7-yl)-2-((3-fluoro-1H-pyrrolo[2,3-b]pyridin-5-yl)oxy)-N-((6-((((1r,4r)-4-hydroxy-4-methylcyclohexyl)methyl)amino)-5-nitropyridin-3-yl)sulfonyl)benzamide] here?
A: 1 nM

Q: `CCOc1nc2[nH]cc(F)c2cc1Oc1cc(N2CCC3(CC2)CC(N2CCN(Cc4ccc(OC)c(F)c4)C[C@H]2c2ccccc2C(C)C)C3)ccc1C(=O)NS(=O)(=O)c1cnc(NC[C@H]2CC[C@](C)(O)CC2)c([N+](=O)[O-])c1` [Example 98, 2-((6-ethoxy-3-fluoro-1H-pyrrolo[2,3-b]pyridin-5-yl)oxy)-4-(2-((R)-4-(3-fluoro-4-methoxybenzyl)-2-(2-isopropylphenyl)piperazin-1-yl)-7-azaspiro[3.5]nonan-7-yl)-N-((6-((((1r,4r)-4-hydroxy-4-methylcyclohexyl)methyl)amino)-5-nitropyridin-3-yl)sulfonyl)benzamide] was tested. Which IC50 did it give?
A: 1 nM

Q: For `CCOc1nc2[nH]cc(F)c2cc1Oc1cc(N2CCC3(CC2)CC(N2CCN(C(C)=O)C[C@H]2c2ccccc2C(C)C)C3)ccc1C(=O)NS(=O)(=O)c1cnc(NC[C@H]2CC[C@](C)(O)CC2)c([N+](=O)[O-])c1` [Example 147, 4-(2-((R)-4-acetyl-2-(2-isopropylphenyl)piperazin-1-yl)-7-azaspiro[3.5]nonan-7-yl)-2-((6-ethoxy-3-fluoro-1H-pyrrolo[2,3-b]pyridin-5-yl)oxy)-N-((6 ((((1r,4r)-4-hydroxy-4-methylcyclohexyl)methyl)amino)-5-nitropyridin-3-yl)sulfonyl)benzamide], which IC50 is on record?
A: 1 nM

Q: How did the IC50 turn out when `COc1nc2[nH]cc(F)c2cc1Oc1cc(N2CCC3(CC2)CC(N2CCN(C(C)=O)C[C@H]2c2ccccc2C(C)C)C3)ccc1C(=O)NS(=O)(=O)c1cnc(NC[C@H]2CC[C@](C)(O)CC2)c([N+](=O)[O-])c1` [Example 146, 4-(2-((R)-4-acetyl-2-(2-isopropylphenyl)piperazin-1-yl)-7-azaspiro[3.5]nonan-7-yl)-2-((3-fluoro-6-methoxy-1H-pyrrolo[2,3-b]pyridin-5-yl)oxy)-N-((6-((((1r,4r)-4-hydroxy-4-methylcyclohexyl)methyl)amino)-5-nitropyridin-3-yl)sulfonyl)benzamide] was run?
A: 1 nM

Q: How did the IC50 turn out when `CC(C)c1ccccc1[C@@H]1CN(Cc2ccc(S(C)(=N)=O)cc2)CCN1C1CC2(CCN(c3ccc(C(=O)NS(=O)(=O)c4cnc(NC[C@H]5CC[C@](C)(O)CC5)c([N+](=O)[O-])c4)c(Oc4cnc5[nH]cc(F)c5c4)c3)CC2)C1` (stereo partly drawn) [Example 337, 2-((3-fluoro-1H-pyrrolo[2,3-b]pyridin-5-yl)oxy)-N-((6-((((1r,4r)-4-hydroxy-4-methylcyclohexyl)methyl)amino)-5-nitropyridin-3-yl)sulfonyl)-4-(2-((2R)-2-(2-isopropylphenyl)-4-(4-(S-methylsulfonimidoyl)benzyl)piperazin-1-yl)-7-azaspiro[3.5]nonan-7-yl)benzamide] was run?
A: 1 nM

Q: `CC(=O)N1CCN(C2CC3(CCN(c4ccc(C(=O)NS(=O)(=O)c5cnc(NC[C@H]6CC[C@](C)(O)CC6)c([N+](=O)[O-])c5)c(Oc5cnc6[nH]cc(F)c6c5)c4)CC3)C2)[C@H](c2ccccc2C(C)C)C1` [Example 148, 4-(2-((R)-4-acetyl-2-(2-isopropylphenyl)piperazin-1-yl)-7-azaspiro[3.5]nonan-7-yl)-2-((3-fluoro-1H-pyrrolo[2,3-b]pyridin-5-yl)oxy)-N-((6-((((1r,4r)-4-hydroxy-4-methylcyclohexyl)methyl)amino)-5-nitropyridin-3-yl)sulfonyl)benzamide] was tested. Which IC50 did it give?
A: 1 nM

Q: `COc1cc(CN2CCC(N3CC4(CCN(c5ccc(C(=O)NS(=O)(=O)c6cnc(NC[C@H]7CC[C@](C)(O)CC7)c([N+](=O)[O-])c6)c(Oc6cc7c(F)c[nH]c7nc6OC)c5)CC4)C3)C(c3ccccc3C(C)C)C2)ccc1C1CC1` (stereo partly drawn) [Example 24, 4-(2-(1-(4-cyclopropyl-3-methoxybenzyl)-3-(2-isopropylphenyl)piperidin-4-yl)-2,7-diazaspiro[3.5]nonan-7-yl)-2-((3-fluoro-6-methoxy-1H-pyrrolo[2,3-b]pyridin-5-yl)oxy)-N-((6-((((1r,4r)-4-hydroxy-4-methylcyclohexyl)methyl)amino)-5-nitropyridin-3-yl)sulfonyl)benzamide] was tested. Which IC50 did it give?
A: 1 nM

Q: `CCOc1nc2[nH]cc(F)c2cc1Oc1cc(N2CCC3(CC2)CC(N2CCN(Cc4cc(F)c(OC)c(F)c4)C[C@H]2c2ccccc2C(C)C)C3)ccc1C(=O)NS(=O)(=O)c1cnc(NC[C@H]2CC[C@](C)(O)CC2)c([N+](=O)[O-])c1` [Example 108, 4-(2-((R)-4-(3,5-difluoro-4-methoxybenzyl)-2-(2-isopropylphenyl)piperazin-1-yl)-7-azaspiro[3.5]nonan-7-yl)-2-((6-ethoxy-3-fluoro-1H-pyrrolo[2,3-b]pyridin-5-yl)oxy)-N-((6-((((1r,4r)-4-hydroxy-4-methylcyclohexyl)methyl)amino)-5-nitropyridin-3-yl)sulfonyl)benzamide] was tested. Which IC50 did it give?
A: 1 nM

Q: `COc1nc2[nH]cc(F)c2cc1Oc1cc(N2CCC3(CC2)CC(N2CCN(Cc4ccc5c(c4)OCCO5)C[C@H]2c2ccccc2C(C)C)C3)ccc1C(=O)NS(=O)(=O)c1cnc(NC[C@H]2CC[C@](C)(O)CC2)c([N+](=O)[O-])c1` [Example 321, 4-(2-((R)-4-((2,3-dihydrobenzo[b][1,4]dioxin-6-yl)methyl)-2-(2-isopropylphenyl)piperazin-1-yl)-7-azaspiro[3.5]nonan-7-yl)-2-((3-fluoro-6-methoxy-1H-pyrrolo[2,3-b]pyridin-5-yl)oxy)-N-((6-((((1r,4r)-4-hydroxy-4-methylcyclohexyl)methyl)amino)-5-nitropyridin-3-yl)sulfonyl)benzamide] was tested. Which IC50 did it give?
A: 1 nM

Q: `CCOc1nc2[nH]cc(F)c2cc1Oc1cc(N2CCC3(CC2)CC(N2CCN(C4CC4)C[C@H]2c2ccccc2C(C)C)C3)ccc1C(=O)NS(=O)(=O)c1cnc(NC[C@H]2CC[C@](C)(O)CC2)c([N+](=O)[O-])c1` [Example 144, 4-(2-((R)-4-cyclopropyl-2-(2-isopropylphenyl)piperazin-1-yl)-7-azaspiro[3.5]nonan-7-yl)-2-((6-ethoxy-3-fluoro-1H-pyrrolo[2,3-b]pyridin-5-yl)oxy)-N-((6-((((1r,4r)-4-hydroxy-4-methylcyclohexyl)methyl)amino)-5-nitropyridin-3-yl)sulfonyl)benzamide] was tested. Which IC50 did it give?
A: 1 nM
